Data from US20230293405A1, “Compositions Comprising UV-Filters and One or More (Bio)-Alkanediols” (Symrise AG, priority 2020, published 2023).

Columns and labels:
[1] = Sensory properties of oil component blended with alkanediol, assessed by untrained panelists on the backside of the hand; format: in vivo; details: scale 1 (low) to 5 (high absorption)
Excerpt: For evaluating the sensory behavior, oil components specified in the following Table 13 were blended with 1,2-heptanediol or 2,3-heptanediol or a mixture of 1,2-heptanediol and 2,3-heptanediol or 1,2-octanediol or 2,3-octanediol or a mixture of 1,2-octanediol and 2,3-octanediol (formulation) and assessed by untrained panelists in comparison to the oil component without addition of the specified alkanediols (placebo).
Test procedure: • Hands were pre-washed with liquid soap by following a defined procedure; • 30 μl of corresponding sample was applied on the backside of each hand (randomized); • After 30 s the spreading behavior of the respective formulation on skin was evaluated versus the respective oil component without 1,2-heptanediol on a scale from 1 to 5 (1=low spreading; 5=high spreading); • The samples were distributed with the fingertips of middle and forefinger with 2×5 cycles; • After 2 minutes, the fatty/greasy skin feeling was evaluated on a scale from 1 to 5 (1=low fatty/greasy skin feeling; 5=high fatty/greasy skin feeling); • Furthermore, the applicants were asked to assess the absorption, i.e. the impression of amount of remaining residue on the skin on a scale from 1 to 5 (1=low absorption; 5=high absorption).

[2] = Solubility of alkanediols in water (visual observation); details: assessed at ambient temperature after 24 h storage at 5° C.
Excerpt: The water solubility of a substance is the saturation mass concentration of the substance in water at a given temperature. The determination of the solubility in water relates to essentially pure substances which are stable in water and not volatile.
For the determination of the water solubility of an alkanediol, water and different concentrations of the respective alkanediol were blended by stirring. […] The determination of whether the alkanediol has dissolved in water is based entirely on visual observation.

[3] = in Caprylic Capric Triglyceride (neutral oil)
[4] = in Helianthus Annuus (Sunflower) Seed Oil

| Compound | Absorption/remaining residue with ([1]; in Argan Oil) | Absorption/remaining residue with ([1]; in Avocado Oil) | Absorption/remaining residue with ([1]; in Cacao butter) | Absorption/remaining residue with ([1]; in Castor Oil) | Absorption/remaining residue with ([1]; in Coconut Oil) | Absorption/remaining residue with ([1]; in Grapeseed Oil) | Absorption/remaining residue with [1, 4] | Absorption/remaining residue with ([1]; in Olive Oil) | Maximum solubility in water (% by weight) [2] [% by weight] | further results |
| --- | --- | --- | --- | --- | --- | --- | --- | --- | --- | --- |
| CCCCCC(O)CO (stereo not shown) [1,2-heptanediol] | 2.8 | 2.6 | 3.6 | 4 | 2 | 2.8 | 2 | 2.4 | 2.5 | Absorption/remaining residue with ([1]; in Butyrospermum Parkii (Shea) Butter): 2.7; Absorption/remaining residue with [1, 3]: 2.7; Absorption/remaining residue with ([1]; in Cetearyl Nonanoate (SymMollient S)): 2; Absorption/remaining residue with ([1]; in Chlorella oil (biotech)): 3; Absorption/remaining residue with ([1]; in Ethylhexyl Methoxycinnamate (Neo Heliopan AV)): 3; Absorption/remaining residue with ([1]; in Ethylhexyl Salicylate (Neo Heliopan OS)): 2.2; Absorption/remaining residue with ([1]; in Hexyldecanol (Eutanol G)): 2.7; Absorption/remaining residue with ([1]; in Homosalate (Neo Heliopan HMS)): 2.5; Absorption/remaining residue with ([1]; in Isoamyl p-Methoxycinnamate (Neo Heliopan E 1000)): 2.5; Absorption/remaining residue with ([1]; in Microalgae oil): 2.5; Absorption/remaining residue with ([1]; in Octocrylene (Neo Heliopan 303)): 2.7; Absorption/remaining residue with ([1]; in Propanediol Dicaprylate/Dicaprate (Symollient PDCC)): 2.4; Absorption/remaining residue with ([1]; in Prunus Amygdalus Dulcis (Sweet Almond) Oil): 2.2; Absorption/remaining residue with ([1]; in Simmondsia Chinensis (Jojoba) Seed Oil): 2.5 |
| CCCCCCC(O)C(C)O (stereo not shown) [2,3-nonanediol] |  |  |  |  |  |  |  |  | 0.3 |  |
| CCCCC(O)C(C)O (stereo not shown) [2,3-heptanediol] | 2.4 | 2.4 | 3.2 | 3.8 | 2.4 | 2.2 | 2.6 | 2 | 3.6 | Absorption/remaining residue with [1, 3]: 3 |
| CCCCCCCC(O)CO (stereo not shown) [1,2-nonanediol] |  |  |  |  |  |  |  |  | 0.1 |  |
| CCCCCC(O)C(C)O (stereo not shown) [2,3-octanediol] | 2.2 | 2.4 | 2.8 | 3 | 2.6 | 2.4 | 3.4 | 2.6 | 1.5 |  |
| CCCCCCC(O)CO (stereo not shown) [Hydrolite ® 8, Caprylyl Glycol] |  |  |  |  |  |  |  |  | 0.5 |  |
| CCCCCCC(O)CO (stereo not shown) [1,2-octanediol] | 2.6 | 2.6 | 3 |  | 3 | 1.6 | 2 | 2.6 |  |  |
